Source: paper PMC3265452 (PLoS Neglected Tropical Diseases, 2012)
Where a name gives a salt, the structure may show the parent alone.

Target: AaDOP2 (Aedes aegypti, UniProt H6D5H2)
Assay: AaDOP2 antagonist screen of the LOPAC1280 library (HEK-CRELuc-Aadop2 cells, luminescence)
Assay type: cell-based
Details: not given

AaDOP2, sequence (H6D5H2 1-476): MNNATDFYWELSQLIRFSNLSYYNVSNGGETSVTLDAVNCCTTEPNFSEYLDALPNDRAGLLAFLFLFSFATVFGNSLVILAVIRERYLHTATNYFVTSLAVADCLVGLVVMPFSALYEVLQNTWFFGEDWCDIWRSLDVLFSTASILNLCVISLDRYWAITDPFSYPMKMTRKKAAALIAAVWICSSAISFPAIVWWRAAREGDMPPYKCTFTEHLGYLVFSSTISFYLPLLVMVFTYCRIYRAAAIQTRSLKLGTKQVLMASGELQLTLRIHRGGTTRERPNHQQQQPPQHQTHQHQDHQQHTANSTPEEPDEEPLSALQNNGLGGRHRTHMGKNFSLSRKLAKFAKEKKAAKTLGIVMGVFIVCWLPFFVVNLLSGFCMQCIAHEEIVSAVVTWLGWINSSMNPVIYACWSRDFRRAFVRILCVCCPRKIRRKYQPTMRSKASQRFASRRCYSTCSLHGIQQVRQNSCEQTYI

Structure (SMILES) | Compound effect (percent receptor signaling in presence of test compound, relative lux units relative to the SCH23390 control) | % of the SCH23390 effect (percent inhibition of receptor response relative to the SCH23390 control) [%]
C[C@H](Cc1ccc2c(c1)OC(C(=O)O)(C(=O)O)O2)NC[C@H](O)c1cccc(Cl)c1 [Compound 278, CL 316,243] | 101 | –
Oc1cc(-c2ccccc2)nc2nc(Cl)ccc12 [Compound 279, 7-Chloro-4-hydroxy-2-phenyl-1,8-naphthyridine] | 100 | –
Clc1ccccc1C(c1ccccc1)(c1ccccc1)n1ccnc1 [Compound 280, Clotrimazole] | 77 | –
CN1CCC(=C2c3ccccc3C=Cc3ccccc32)CC1 [Compound 281, Cyproheptadine hydrochloride] | 86 | –
CO[C@@]1(NC(=O)CSCC#N)C(=O)N2C(C(=O)O)=C(CSc3nnnn3C)CS[C@@H]21 [Compound 283, Cefmetazole sodium] | 74 | –
CCN(CC)CCCC(C)Nc1ccnc2cc(Cl)ccc12 (stereo not drawn) [Compound 286, Chloroquine diphosphate] | 83 | –
CCOC(=O)C(C)(C)Oc1ccc(Cl)cc1 [Compound 287, Clofibrate] | 74 | –
CCCN(CCC)C(=O)Cc1c(-c2ccc(Cl)cc2)nc2c(Cl)cc(Cl)cn12 [Compound 289, CB34] | 106 | –
N[C@@H](C(=O)N[C@@H]1C(=O)N2C(C(=O)O)=C(Cl)CS[C@H]12)c1ccccc1 [Compound 290, Cefaclor] | 87 | –
C[N+](C)(C)CC#CCOC(=O)Nc1cccc(Cl)c1.[Cl-] [Compound 292, McN-A-343] | 121 | –
COc1cccc(C(=O)NCCN2CCN(c3ccc(Cl)cc3)CC2)c1 [Compound 293, N-(2-[4-(4-Chlorophenyl)piperazin-1-yl]ethyl)-3-methoxybenzamide] | 95 | –
NCCSSCCN [Compound 294, Cystamine dihydrochloride] | 84 | –
CNc1ccc2oc(C[C@H]3O[C@@]4(CC[C@H]3C)O[C@H]([C@H](C)C(=O)c3ccc[nH]3)[C@H](C)C[C@H]4C)nc2c1C(=O)O [Compound 296, Calcimycin] | 102 | –
C[C@@]12C(=O)OC(=O)[C@]1(C)[C@H]1CC[C@@H]2O1 [Compound 297, Cantharidin] | 96 | –
CN(C)CCCC1(c2ccc(F)cc2)OCc2cc(C#N)ccc21 (stereo not drawn) [Compound 298, Citalopram hydrobromide] | 90 | –
Clc1cccc(Cl)c1N=C1NCCN1 [Compound 299, Clonidine hydrochloride] | 100 | –
CO/N=C(\C(=O)N[C@@H]1C(=O)N2C(C(=O)O)=C(COC(C)=O)CS[C@H]12)c1csc(N)n1 [Compound 300, Cefotaxime sodium] | 93 | –
CN(C(=O)CCCOc1ccc2[nH]c(=O)ccc2c1)C1CCCCC1 [Compound 301, Cilostamide] | 88 | –
O=C(O)c1cc(O)cc(C(=O)O)n1 [Compound 302, Chelidamic acid] | 82 | –
OC[C@H]1O[C@@H](n2cnc3c(NC4CCCC4)ncnc32)[C@H](O)[C@@H]1O [Compound 303, N6-Cyclopentyladenosine] | 89 | –
CC1(C(=O)O)C2CCC(O2)C1(C)C(=O)O (stereo not drawn) [Compound 304, Cantharidic Acid] | 120 | –
CN(C)CCCN1c2ccccc2Sc2ccc(Cl)cc21 [Compound 305, Chlorpromazine hydrochloride] | 95 | –
O=C(/C=C/c1ccc(O)c(O)c1)OCCc1ccccc1 [Compound 307, Caffeic acid phenethyl ester] | 147 | –

Structure (SMILES) | Compound effect (percent receptor signaling in presence of test compound, relative lux units relative to the SCH23390 control) | % of the SCH23390 effect (percent inhibition of receptor response relative to the SCH23390 control) [%]
CC(=O)OCC1=C(C(=O)O)N2C(=O)[C@@H](NC(=O)CSc3ccncc3)[C@H]2SC1 [Compound 308, Cephapirin sodium] | 116 | –
CC1=C(C(=O)O)N2C(=O)[C@@H](NC(=O)[C@H](N)C3=CCC=CC3)[C@H]2SC1 [Compound 309, Cephradine] | 79 | –
CCN(CCCl)Cc1ccccc1Br.Cl [Compound 310, DSP-4 hydrochloride] | 111 | –
CCn1nc(C(=O)O)c(=O)c2cc3c(cc21)OCO3 [Compound 311, Cinoxacin] | 135 | –
CCCC(C)(COC(N)=O)COC(=O)NC(C)C (stereo not drawn) [Compound 312, Carisoprodol] | 130 | –
CN(C)CCOC(=O)COc1ccc(Cl)cc1 [Compound 313, Centrophenoxine hydrochloride] | 99 | –
Cl.N[C@@H](CCl)C(=O)O [Compound 315, beta-Chloro-L-alanine hydrochloride] | 99 | –
Oc1ccccc1O [Compound 316, Pyrocatechol] | 101 | –
O=C(N[C@@H](Cc1ccccc1)C(=O)CCl)OCc1ccccc1 [Compound 317, Z-L-Phe chloromethyl ketone] | 124 | –
COc1cc2c(c(OC)c1OC)-c1ccc(OC)c(=O)cc1[C@@H](NC(C)=O)CC2 [Compound 319, Colchicine] | 131 | –
NC(N)=NOCC[C@H](N)C(=O)O.O=S(=O)(O)O [Compound 320, L-Canavanine sulfate] | 92 | –
NS(=O)(=O)c1cc2c(cc1Cl)NC(C1CC3C=CC1C3)NS2(=O)=O (stereo not drawn) [Compound 321, Cyclothiazide] | 93 | –
OC[C@H]1O[C@@H](n2cnc3c(NC4CCCCC4)ncnc32)[C@H](O)[C@@H]1O [Compound 322, N6-Cyclohexyladenosine] | 100 | –
CC[C@@]1(O)C(=O)OCc2c1cc1n(c2=O)Cc2cc3ccccc3nc2-1 [Compound 323, (S)-(+)-Camptothecin] | 7 | 93
CCN(CC)C(C)C(=O)N1c2ccccc2Sc2ccccc21.Cl (stereo not drawn) [Compound 324, 10-(alpha-Diethylaminopropionyl)-phenothiazine hydrochloride] | 56 | –
CCCn1c(=O)c2[nH]c(C3CCCC3)nc2n(CCC)c1=O [Compound 327, 8-Cyclopentyl-1,3-dipropylxanthine] | 111 | –
Cn1c(=O)c2[nH]c(C3CCCC3)nc2n(C)c1=O [Compound 328, 8-Cyclopentyl-1,3-dimethylxanthine] | 93 | –
Cl.NCC(O)C1CCCCCCC1 (stereo not drawn) [Compound 331, 2-Cyclooctyl-2-hydroxyethylamine hydrochloride] | 95 | –
NCCc1c[nH]c2ccc(C(N)=O)cc12.O=C(O)/C=C\C(=O)O [Compound 332, 5-Carboxamidotryptamine maleate] | 119 | –
O=C(O)c1cc(O)c2ccc(Cl)cc2n1 [Compound 333, 7-Chlorokynurenic acid] | 79 | –
CCNC(=O)[C@H]1O[C@@H](n2cnc3c(N)nc(NCCc4ccc(CCC(=O)O)cc4)nc32)[C@H](O)[C@@H]1O.Cl [Compound 337, CGS-21680 hydrochloride] | 112 | –
OC[C@H]1O[C@@H](n2cnc3c(NC4CCCC4)nc(Cl)nc32)[C@H](O)[C@@H]1O [Compound 338, 2-Chloro-N6-cyclopentyladenosine] | 92 | –

Same assay, conditions: 10 µM compound, 300 nM dopamine, 2 hr; hit = compound effect <20

Structure (SMILES) | Compound effect (percent receptor signaling in presence of test compound, relative lux units relative to the SCH23390 control) [%]
Nc1ncnc2c1ncn2[C@@H]1O[C@H](C(=O)NC2CC2)[C@@H](O)[C@H]1O [Compound 282, 5'-(N-Cyclopropyl)carboxamidoadenosine] | 82
Cl.Nc1ccn([C@@H]2O[C@H](CO)[C@@H](O)[C@@H]2O)c(=O)n1 [Compound 288, Cytosine-1-beta-D-arabinofuranoside hydrochloride] | 92
NC(=O)c1cc[n+](CC2=C(C(=O)[O-])N3C(=O)[C@@H](NC(=O)[C@@H](c4ccccc4)S(=O)(=O)[O-])[C@H]3SC2)cc1.[Na+] [Compound 306, Cefsulodin sodium salt hydrate] | 108
CN1CCN(c2nc3cc(C(F)(F)F)ccc3n3cccc23)CC1.O=C(O)/C=C\C(=O)O [Compound 330, CGS-12066A maleate] | 104
C[C@@](Cc1ccc(O)c(O)c1)(NN)C(=O)O [Compound 335, S-(-)-Carbidopa] | 112
